This is an account of results in article PMC9370031, “Free Linoleic Acid and Oleic Acid Reduce Fat Digestion and Absorption In Vivo as Potent Pancreatic Lipase Inhibitors Derived from Sesame Meal” (Molecules, 2022).

Read-outs that look alike come from different tables or passages of the source.

In this test the target is T1, porcine pancreatic lipase (Sus scrofa, UniProt P00591).
T1 construct: gene PNLIP
T1 sequence (P00591 1-450): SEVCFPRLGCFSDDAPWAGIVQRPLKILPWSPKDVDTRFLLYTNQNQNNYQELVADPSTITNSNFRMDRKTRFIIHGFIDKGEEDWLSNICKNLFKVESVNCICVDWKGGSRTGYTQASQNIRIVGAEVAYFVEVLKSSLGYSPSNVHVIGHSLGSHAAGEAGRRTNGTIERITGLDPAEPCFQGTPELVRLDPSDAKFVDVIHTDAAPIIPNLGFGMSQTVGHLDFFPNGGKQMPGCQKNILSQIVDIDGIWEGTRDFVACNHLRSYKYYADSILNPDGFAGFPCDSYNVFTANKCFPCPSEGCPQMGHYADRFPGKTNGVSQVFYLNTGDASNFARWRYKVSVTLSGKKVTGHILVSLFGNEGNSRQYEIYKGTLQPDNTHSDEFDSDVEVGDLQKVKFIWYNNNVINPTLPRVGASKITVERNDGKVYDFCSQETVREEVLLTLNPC
Nature of the test: colorimetric lipase activity assay (Lipase Kit S, BLAB/DTNB, […] nm) with porcine pancreas lipase Type II. The format is biochemical.

The term IC50 denotes the concentration needed to halve the response being measured. Regarding `CCCCC/C=C\C/C=C\CCCCCCCC(=O)O` [linoleic acid], the midpoint of inhibition, the IC50, lay at 82.4 µM.

Regarding `CCCCCCCC/C=C\CCCCCCCC(=O)O` [oleic acid], the IC50 (read-out: IC50) is 41.4 µM.
